Source: patent US9732087B2, “Diamino-pyridine, pyrimidine, and pyridazine modulators of the histamine H4 receptor” (JANSSEN PHARMACEUTICA NV, priority 2008, dated 2017)

Legend:
[1] = test system: diabetes induced obese (DIO) mouse model; assay: Insulin resistance in diabetes induced obese (DIO) mouse model; assay type: in vivo
Description: Insulin Resistance in Diabetes Induced Obese Mouse Model.
The effect of administration of an H4R antagonist, 5-fluoro-4-methyl-2-{5-methyl-2-[4-(1-methyl-piperidin-4-yl)-butoxy]-pyridin-4-yl}-1H-benzoimidazole (U.S. Pat. No. 7,432,378, Example 165), was tested in the treatment of insulin resistance in the diabetes induced obese (DIO) mouse model. […] Our data support the claim that H4R antagonists have beneficial properties towards the treatment of type 2 diabetes and related metabolic diseases.

mast cells [2] = settings: cited from earlier work
[3] = test system: mouse models of asthma, arthritis and dermatitis; settings: in vivo; cited from earlier work
eosinophils = settings: cited from earlier work
mast cells [4] = settings: cited from earlier work; remark: listed apart in the source
H4 receptor (H4R) = H4 receptor (H4R) (Homo sapiens (Human), UniProt Q9H3N8); settings: in vitro; cited from earlier work
Chain of H4 receptor (H4R) (Q9H3N8 whole entry, species assumed): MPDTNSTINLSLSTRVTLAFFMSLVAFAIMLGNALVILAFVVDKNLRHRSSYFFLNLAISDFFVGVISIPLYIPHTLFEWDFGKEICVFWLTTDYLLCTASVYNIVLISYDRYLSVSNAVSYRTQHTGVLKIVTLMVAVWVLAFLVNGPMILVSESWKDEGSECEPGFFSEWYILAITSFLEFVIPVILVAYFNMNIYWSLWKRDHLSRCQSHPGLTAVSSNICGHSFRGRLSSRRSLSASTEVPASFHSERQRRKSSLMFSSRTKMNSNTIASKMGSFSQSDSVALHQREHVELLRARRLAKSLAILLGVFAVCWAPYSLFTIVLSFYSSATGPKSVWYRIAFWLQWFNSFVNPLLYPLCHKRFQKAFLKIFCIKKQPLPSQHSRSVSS

[5] = test system: lipopolysaccharide (LPS)-induced tumor necrosis factor alpha (TNF-α) production; settings: in vivo; cited from earlier work

SMILES | MCP-1 and TNF-α expression [1] | fat content in liver [1] | fed and fasted glucose levels ([1]; 20 mg/kg PO) | insulin sensitivity as determined by an insulin tolerance test ([1]; 20 mg/kg PO) | IL-6 production in mast cells (mast cells [2]) | inflammation in mouse models of asthma, arthritis and dermatitis [3] | histamine-induced shape change of eosinophils (eosinophils) | chemotaxis of mast cells (mast cells [4]) | selectivity over other histamine receptors (H4 receptor (H4R)) | LPS-induced TNF-α production and other cytokines [5]
Cc1cnc(OCCCCC2CCN(C)CC2)cc1-c1nc2c(C)c(F)ccc2[nH]1 [5-Fluoro-4-methyl-2-{5-methyl-2-[4-(1-methyl-piperidin-4-yl)-butoxy]-pyridin-4-yl}-1H-benzoimidazole] | reduced | significantly reduced | significantly reduced | improved |  |  |  |  |  | 
Cc1cc(C)c2nc(-c3cnc(NCCCC4CCN(C)CC4)nc3C)[nH]c2c1 [[5-(4,6-dimethyl-1H-benzoimidazol-2-yl)-4-methyl-pyrimidin-2-yl]-[3-(1-methyl-piperidin-4-yl)-propyl]-amine] |  |  |  |  | inhibited | reduced inflammation | inhibited | inhibited | greater than 25 fold | inhibited
